This is an account of results in patent US20250120397A1, “PEST CONTROL METHOD” (National Chung Hsing University, priority 2023, published 2025).

What all share (assay type): in vivo
In assay [1] the test system is Anoplolepis longipes (long-legged ant). Kind of assay: 24-hour fumigation in sealed 1-L container, fatality rate. The text has this: (§1) Sitophilus oryzae (rice weevil), Tetranychus urticae (two-spotted spider mite), Lasioderma serricorne (cigarette beetle), Blattella germanica (German cockroach), Anoplolepis longipes (long-legged ant), and Solenopsis invicta (red imported fire ant) were used as the test objects of this experiment and were each put into several 1-L containers. A carrier containing an isododecane (or 2,2,4,6,6-pentamethylheptane to be exact) at each of a plurality of predetermined concentrations (i.e., 2.5, 5, 10, 20, 30, and 40 mg) was then put into one of the 1-L containers of each test object, before the containers were sealed to start a 24-hour fumigation process. After that, the containers were aerated, and the numbers of deaths of each kind of pests were counted.
(§2) Sitophilus oryzae, Tetranychus urticae, Lasioderma serricorne, Blattella germanica, Anoplolepis longipes, and Solenopsis invicta were each put into several 1-L containers. A carrier containing each of n-dodecane, n-decane, 2-methylnonane (an isodecane), and 2,2,4,6,6-pentamethylheptane (an isododecane) at a concentration of 30 mg was then put into one of the 1-L containers of each test object, before the containers were sealed to start a 24-hour fumigation process. After that, the containers were aerated, and the numbers of deaths of each kind of pests were counted.

The test system of assay [2] is Blattella germanica (German cockroach). The description is as above.
Description: as §1, §2

Assay [3] relates to Lasioderma serricorne (cigarette beetle). The description is as above.
Description: as §1, §2

Assay [4] concerns Sitophilus oryzae (rice weevil). The description is as above.
Description: as §1, §2

For assay [5], the system named is Solenopsis invicta (red imported fire ant). The description is as above.
Description: as §1, §2

Assay [6] has as its system Tetranychus urticae (two-spotted spider mite). The assay is described as above.
Description: as §1, §2

A further assay concerns mosquito larvae. Kind of assay: Mosquito larvae killing in 100 mL deionized water, 24 hours, fatality rate. The conditions noted are these: uncovered. The procedure:
Artificially raised non-pathogenic mosquito larvae were divided into a plurality of groups each including 30 larvae. Each group of larvae was put into a 1-L container together with 100 mL of deionized water. Then, a reagent containing a spreading agent for agricultural use as well as an isododecane and an isohexadecane in a ratio of 4:1 was added into the deionized water in each container at one of a plurality of predetermined doses and thoroughly mixed. The containers were left uncovered. After 24 hours, the numbers of deaths of the mosquito larvae were counted.

The mark [7] stands for this setting: Table 2: compound at 30 mg in 1-L container.

As to `CC(CC(C)(C)C)CC(C)(C)C` [2,2,4,6,6-pentamethylheptane], the “Fatality rate (%) Anoplolepis longipes” value in assay [1] (setting [7]) stood at 100%; in assay [1] (dose 2.5 mg in 1-L container), 8%; in assay [1] (dose 5 mg in 1-L container) it was 14%; in assay [1] (dose 10 mg in 1-L container), 32%; in assay [1] (dose 20 mg in 1-L container), 80%; in assay [1] (dose 30 mg in 1-L container), 100%. Besides, the “Fatality rate (%) Anoplolepis longipes” value in assay [1] (dose 40 mg in 1-L container) was 100%. Besides, the “Fatality rate (%) Blattella germanica” value is given as 100% in assay [2] (setting [7]); 7% in assay [2] (dose 2.5 mg in 1-L container); 18% in assay [2] (dose 5 mg in 1-L container); 38% in assay [2] (dose 10 mg in 1-L container); 88.89% in assay [2] (dose 20 mg in 1-L container); 100% in assay [2] (dose 30 mg in 1-L container). The “Fatality rate (%) Blattella germanica” value in assay [2] (dose 40 mg in 1-L container) was determined as 100%. Further, the “Fatality rate (%) Lasioderma serricorne” value worked out at 100% in assay [3] (setting [7]); 5% in assay [3] (dose 2.5 mg in 1-L container); 18% in assay [3] (dose 5 mg in 1-L container); 25% in assay [3] (dose 10 mg in 1-L container); 42.11% in assay [3] (dose 20 mg in 1-L container); 100% in assay [3] (dose 30 mg in 1-L container). In addition, in assay [3] (dose 40 mg in 1-L container), the “Fatality rate (%) Lasioderma serricorne” value was found to be 100%. Further, the “Fatality rate (%) Sitophilus oryzae” value in assay [4] (setting [7]) is 100%; in assay [4] (dose 2.5 mg in 1-L container) it was 0%; in assay [4] (dose 5 mg in 1-L container) it was 7%; in assay [4] (dose 10 mg in 1-L container) it was 22%; in assay [4] (dose 20 mg in 1-L container), 30%; in assay [4] (dose 30 mg in 1-L container) it was 100%. Besides, the “Fatality rate (%) Sitophilus oryzae” value in assay [4] (dose 40 mg in 1-L container) amounted to 100%. Besides, the “Fatality rate (%) Solenopsis invicta” value worked out at 100% in assay [5] (setting [7]); 32% in assay [5] (dose 2.5 mg in 1-L container); 55% in assay [5] (dose 5 mg in 1-L container); 100% in assay [5] (dose 10 mg in 1-L container); 100% in assay [5] (dose 20 mg in 1-L container); 100% in assay [5] (dose 30 mg in 1-L container). Besides, in assay [5] (dose 40 mg in 1-L container), the “Fatality rate (%) Solenopsis invicta” value was found to be 100%. For the same compound, the “Fatality rate (%) Tetranychus urticae” value in assay [6] (setting [7]) was 100%; in assay [6] (dose 2.5 mg in 1-L container), 45%; in assay [6] (dose 5 mg in 1-L container) it was 72%; in assay [6] (dose 10 mg in 1-L container), 100%; in assay [6] (dose 20 mg in 1-L container), 100%; in assay [6] (dose 30 mg in 1-L container) it was 100%. In addition, the “Fatality rate (%) Tetranychus urticae” value in assay [6] (dose 40 mg in 1-L container) was determined as 100%. The “Fatality rate (%) of mosquito larvae” value in the assay with mosquito larvae (dose 2.5 mg in 100 mL deionized water) is 33%; with mosquito larvae (dose 5 mg in 100 mL deionized water), 50%; in the assay with mosquito larvae (dose 10 mg in 100 mL deionized water), 80%; in the assay with mosquito larvae (dose 20 mg in 100 mL deionized water), 100%; with mosquito larvae (dose 40 mg in 100 mL deionized water), 100%.

Regarding `CCCCCCCC(C)C` [2-methylnonane], the “Fatality rate (%) Anoplolepis longipes” value in assay [1] (setting [7]) was 90%. In assay [2] (setting [7]), the “Fatality rate (%) Blattella germanica” value was 100%. Further, the “Fatality rate (%) Lasioderma serricorne” value in assay [3] (setting [7]) was found to be 100%. Also, the “Fatality rate (%) Sitophilus oryzae” value in assay [4] (setting [7]) came out at 100%. Besides, in assay [5] (setting [7]), the “Fatality rate (%) Solenopsis invicta” value is listed as 100%. Also, the “Fatality rate (%) Tetranychus urticae” value in assay [6] (setting [7]) was determined as 100%.

For the compound `CCCCCCCCCC` [n-decane], the “Fatality rate (%) Anoplolepis longipes” value in assay [1] (setting [7]) is given as 75%. Besides, the “Fatality rate (%) Blattella germanica” value in assay [2] (setting [7]) is on record as 100%. The “Fatality rate (%) Lasioderma serricorne” value in assay [3] (setting [7]) was 100%. In addition, the “Fatality rate (%) Sitophilus oryzae” value in assay [4] (setting [7]) is on record as 100%. Further, the “Fatality rate (%) Solenopsis invicta” value in assay [5] (setting [7]) was 100%. Besides, the “Fatality rate (%) Tetranychus urticae” value in assay [6] (setting [7]) came out at 100%.

As to `CCCCCCCCCCCC` [n-dodecane], the “Fatality rate (%) Anoplolepis longipes” value in assay [1] (setting [7]) amounted to 25%. Also, the “Fatality rate (%) Blattella germanica” value in assay [2] (setting [7]) amounted to 22.22%. Further, the “Fatality rate (%) Lasioderma serricorne” value in assay [3] (setting [7]) is 100%. For the same compound, the “Fatality rate (%) Sitophilus oryzae” value in assay [4] (setting [7]) was 50%. The “Fatality rate (%) Solenopsis invicta” value in assay [5] (setting [7]) is 5%. In assay [6] (setting [7]), the “Fatality rate (%) Tetranychus urticae” value is recorded as 95%.
